Measured values as given in a melting point compilation (Tetko et al.; mined from patent text by program, amines drawn as free bases though some values may be those of a salt).

Going from `NC(=O)C(=O)NC(C(=O)O)c1ccccc1` (stereo not given) to `CC(C)(C(=O)c1ccccc1)S(=O)(=O)c1ccccc1`, the melting point falls from 193 °C to 70 °C.

First: CN1C(=O)C(C)(C)N=C(c2ccccc2F)c2cc([N+](=O)[O-])cc(Cl)c21
Second: Cc1cc(C)c2c(n1)N(C(=O)Cl)c1ccccc1N(C)C2=O
The melting point of the first is higher: 237 to 238 °C for the first, 205 to 207 °C for the second.

Compared with `N#Cc1ccc(Oc2cccc(N)c2)cc1C#N`, `O=C(NCO)c1cccc(Oc2ccccc2)c1` is lower in melting point: 171 to 172 °C for the first, 112 to 113 °C for the second.

First: Cc1cc(N)cnc1-c1ccccc1
Second: Cn1cncc1COc1nn2c(-c3ccccc3)nnc2cc1-c1ccccc1
The melting point of the first is lower: 93 to 98 °C for the first, 195 to 196 °C for the second.

First: CC(=O)NCC1CN(c2ccc(N3CCN(C(=O)COC(=O)CCCN(C)C)CC3)c(F)c2)C(=O)O1 (stereo not given)
Second: CCCc1[nH]c2cc(C(=O)O)ccc2c1C(=O)C1CCCCC1
The melting point of the first is lower: 69 to 71 °C for the first, 217 to 218 °C for the second.

First: C#CCN1C(=O)COc2cc(F)c(N3C(=O)C4C5CC5CN4C3=O)cc21 (stereo not given)
Second: COc1c(N2CCNC(CF)(CF)C2)c(F)cc2c(=O)c(C(=O)O)cn(C3CC3F)c12 (stereo not given)
The melting point of the first is higher: 217 to 219 °C for the first, 164 to 166 °C for the second.

First: O=C1CCC(N2C(=O)c3cccc(NC(=O)CCCCCNC(=O)OCc4ccccc4)c3C2=O)C(=O)N1 (stereo not given)
Second: COc1cc2c(c3c1OC(C)(C)C3)C(c1ccccc1)=NC(CN1C(=O)c3ccccc3C1=O)C2 (stereo not given)
The melting point of the first is lower: 122 to 125 °C for the first, 228 to 229 °C for the second.

Compared with `CN1C(=O)N(CC(COc2ccc(-c3ccc(S(C)(=O)=O)cc3)cc2)N(O)C=O)C(=O)C1(C)C` (stereo not given), `CC#CCOc1ccc(S(=O)(=O)C(C(=O)O)C2CCN(C(=O)c3ccccc3)CC2)cc1` (stereo not given) is lower in melting point: 174 to 175 °C for the first, 90 °C for the second.

`COc1ccc2c(=O)nc(-c3ccccn3)sc2c1` and `COc1ccn(-c2nc(C)c(C(=O)NCc3cccnc3)s2)c(=O)c1` fall in the same range of melting point: 200 to 202 °C for the first, 200 to 202 °C for the second.

First: CCCCCCCCC(SCCCCCC)C(=O)NC1(OC)C=C(C)C=CN1 (stereo not given)
Second: CCOC(=O)c1[nH]c(C)c(C)c1OCCCCCl
The melting point of the first is higher: 83 to 85 °C for the first, 58 to 60 °C for the second.

First: NCC(CCO)c1ccc(Cl)c(Cl)c1 (single isomer, unassigned; (+))
Second: COC(=O)CCc1cnoc1-c1ccc(Cl)c(Cl)c1
The melting point of the first is higher: 80 to 81 °C for the first, 74 to 75 °C for the second.

First: O=C1Nc2cc(C(F)(F)F)ccc2S(=O)(=O)c2ccccc21
Second: O=C1NC(=O)C2(N1)c1ccccc1-c1ncccc12 (stereo not given)
The melting point of the first is lower: 253 to 254 °C for the first, 311 to 312 °C for the second.

First: COc1ccc(-c2cc(=Nc3c(C)cc(C)cc3C)n(C)c(NNC=O)n2)cc1OC
Second: CCCCOC(=O)c1c(C)nc2cc(OC)c(OC)cc2c1-c1ccc(OC)c(OC)c1
The melting point of the first is higher: 136 to 143 °C for the first, 119 to 120 °C for the second.

First: N#Cc1ccc2oc(CO)cc2c1
Second: CC(C)N(N)C(=O)c1ccc(-c2ccc(Cl)cc2)o1
The melting point of the first is lower: 113 to 114 °C for the first, 142 to 144 °C for the second.

First: CNc1nc(-c2cccc(NCc3ccccc3)c2)c2cc(OC)c(OC)cc2n1
Second: COc1ccc(C2=NN(Cc3ccccc3)C(=O)[C@H]3CC=CC[C@@H]23)cc1OC (relative stereo)
The melting point of the first is higher: 146 to 148 °C for the first, 133 to 135 °C for the second.

Compared with `Cc1cc(C)c(Nc2nc(C)ncc2S(=O)(=O)c2ccc(-c3ccncc3)cc2)c(C)c1`, `CC(C)c1ccc(S(=O)(=O)n2c(Cc3ccc(C(=O)O)c(O)c3)cc3cc(C(F)(F)F)ccc32)cc1` is lower in melting point: 232 to 234 °C for the first, 150 °C for the second.

First: O=C(O)C1=CC2=CCCC=C2Sc2c1ccc1c2CCC1
Second: COc1ccc(-c2ccc(C(=O)NN)cc2)cc1OC1CCCC1
The melting point of the first is lower: 77 °C for the first, 167 to 168 °C for the second.

Compared with `O=C(O)C1OCC(O)C(O)C1O` (stereo not given), `CC(=O)OC1CSC(Oc2cccc3cc(C(C)=O)oc23)C(OC(C)=O)C1OC(C)=O` (stereo not given) is higher in melting point: 194 to 196 °C for the first, 208 to 209 °C for the second.

First: Cc1noc(C)c1Cn1cc(N2C(=O)CNC2=O)cn1
Second: COC(=O)c1ccc(SC)c(-c2cc(C)no2)c1C
The melting point of the first is higher: 169 to 171 °C for the first, 94 to 95 °C for the second.

Compared with `CCOC(=O)c1nc(NC(=N)N=CN(C)C)sc1-c1ccncc1`, `CCCOc1ccccc1-c1nc(O)cc(C(=O)OCC)n1` is lower in melting point: 203 to 204 °C for the first, 137 to 138 °C for the second.

Compared with `Cc1cn(C2CC(C#N)C(COC(c3ccccc3)(c3ccccc3)c3ccccc3)O2)c(=O)[nH]c1=O` (stereo not given), `NCCCNC(c1ccccc1)(c1ccccc1)c1ccccc1` is lower in melting point: 153 to 157 °C for the first, 59 to 61 °C for the second.

Compared with `CCCCC(CCCC)(CC(=O)Nc1cccc(OCc2ccc3ccc(F)cc3n2)c1)C(=O)O`, `O=C(Nc1ccc(CN2CCCCC2)cc1)c1cccc(OCc2ccccc2)c1` is lower in melting point: 156 to 157 °C for the first, 137 to 138 °C for the second.

First: COc1ccc(Cn2cnc3c(-c4ccco4)nc(S(C)(=O)=O)nc32)cc1
Second: CC(=NOCCOc1ccc(CC2SC(=O)NC2=O)cc1)c1cccc(O)c1 (stereo not given)
The melting point of the first is higher: 184 to 185 °C for the first, 133 to 135 °C for the second.

First: Cc1cc(Oc2ccc(N)cc2C(F)(F)F)n[nH]1
Second: COc1ccnc(C(C)Sc2nc3cc(OC(F)(F)C(F)Cl)ccc3[nH]2)c1 (stereo not given)
The melting point of the first is higher: 143 to 145 °C for the first, 120 to 122 °C for the second.

First: CN(C)S(=O)(=O)N1CCN(S(=O)(=O)c2ccc(-c3ccc(CC#N)cc3)s2)[C@@H](C(=O)NO)C1
Second: O=C(O)CNC(=O)c1c(Cl)cc(N2C(=O)N3CCCC3(Cc3ccc(Br)cc3)C2=O)cc1Cl (stereo not given)
The melting point of the first is higher: 170 to 172 °C for the first, 157 to 158 °C for the second.

Compared with `CC(C)c1cccc(C(C)C)c1N1C(=O)c2cccc3c(C#N)ccc(c23)C1=O`, `C=CCc1c(C)ccc(N2C(=O)c3ccccc3C2=O)c1O` is lower in melting point: 291 °C for the first, 178 to 180 °C for the second.

Compared with `CC(=O)Oc1ccc(C(C)(c2ccc(OC(C)=O)cc2)c2ccc(OC(C)=O)cc2)cc1`, `Cc1ccccc1CC(=O)Nc1ccc(C(=O)N2Cc3cccn3Cc3ccccc32)cc1` is higher in melting point: 169 °C for the first, 198 to 200 °C for the second.

First: CC(C(=O)c1ccccc1)(c1ccccc1)c1ccccc1Sc1ccccc1C(C)(C(=O)c1ccccc1)c1ccccc1 (stereo not given)
Second: CC(=CN1CCC(CCCC2CCN(C=C(C)c3ccccc3)CC2)CC1)c1ccccc1
The melting point of the first is lower: 101 °C for the first, 120 °C for the second.

Compared with `CCOc1ccc(Cc2cnc(N)nc2N)cc1OC`, `CCOC(=O)C(=Cc1cccc(OC)c1)C(=O)OCC` is lower in melting point: 195 to 196 °C for the first, 45 °C for the second.

Going from `Cc1nc2cnccc2n1-c1ccc(O)cc1F` to `CN(C(=O)COc1nc(F)ns1)c1ccccc1`, the melting point falls from 294 °C to 82 °C.

Compared with `CNC(=NC#N)NCCSCc1nsc(NC(=N)N)n1`, `CCCC[C@H](NC(=O)[C@H](C)Nc1nc2ccccc2s1)C(=O)OC` is lower in melting point: 198 to 199 °C for the first, 99 to 120 °C for the second.

Compared with `CCCn1cnc2c(=O)[nH]c(N)nc21`, `CC(C)c1cc(C=C2C(=O)NC(=O)N2C)cc(C(C)C)c1O` is lower in melting point: greater than 300 °C for the first, 197 to 208 °C for the second.

First: O=c1oc2c(c(=O)n1C1CCCCC1)CCC2
Second: O=C(NC1CC1)c1ccc(F)c(F)c1
The melting point of the first is lower: 72 to 74 °C for the first, 104 to 108 °C for the second.

First: COC(=O)c1ccc(-c2c(CC(=O)Nc3ccc(F)cc3C(F)(F)F)c(=O)oc3cc(Cl)c(C)cc23)cc1
Second: NNC(=O)C(O)c1cc(F)cc(F)c1 (stereo not given)
The melting point of the first is higher: 202 to 204 °C for the first, 119 °C for the second.

Compared with `CON1C(C)(C)CC(OC(=O)c2ccc(C(=O)OC3CC(C)(C)N(OC)C(C)(C)C3)cc2)CC1(C)C`, `COc1cc(C(=O)C#CC(=O)OCC=C(C)C)cc(OC)c1OC` is lower in melting point: 179 to 181 °C for the first, 52 to 53 °C for the second.
